Seven substances from patent US20110288154A1, “RNA Interference Mediated Inhibition of Epithelial Sodium Channel (ENaC) Gene Expression Using Short Interfering Nucleic Acid (siNA)” (MERCK & CO., INC., priority 2008, published 2011) can be followed below.

pIC50: −log10 of the molar value. [invAb] = inverted abasic unit; m = 2'-O-methyl; r = 2'-OH (RNA); f = 2'-fluoro

Data set [1] deals with rSCNN1A (r ENaCα) mRNA. In words: Screening of ENaCα siNAs in Rat H-4-II-E cells (quantitative RT-PCR). The format is cell-based. The arrangement: Percent Reduction of the r ENaCα mRNA relative to a non-targeting control siNA (NTCs) / Rat % KD (efficacy of ENaCα mRNA knockdown): concentration or dose not given beside the values. To be noted: for Mean (rSCNN1A expression normalized to the level of rGAPDH) / Percent Reduction of the r ENaCα mRNA relative to a non-targeting control siNA (NTCs) / Avg ENaCα Expression (rSCNN1A) / Avg GAPDH Expression (rGAPDH): Rat H-4-II-E cells, n = 3; for Mean (rSCNN1A expression normalized to the level of rGAPDH) / Percent Reduction of the r ENaCα mRNA relative to a non-targeting control siNA (NTCs) / Avg GAPDH Expression (rGAPDH): 24 hours post-transfection; for Avg ENaCα Expression (rSCNN1A): harvested 24 hours post-transfection; for Avg GAPDH Expression (rGAPDH): housekeeping gene used for normalisation. The method, then:
(§1) A series of probes and primers were used to detect the various mRNA transcripts of the genes of ENaCa and GAPDH in mouse, rat, and human cell lines. The assays were performed on an ABI 7500 instrument, according to the manufacturer's instructions. Within each experiment, the baseline was set in the exponential phase of the amplification curve, and based on the intersection point of the baselines with the amplification curve, a Ct value was assigned by the instrument. This Ct value was then assigned a QTY value based on the Standard Curve. The standard curve in the various experiments herein used 1 ng to 300 ng of RNA extracted from the same cell line used for the experimental transfections.
(§2) All IC50 values were calculated from the data using GraphPad Prizm software, specifically a sigmoidal, variable slope curve for simple ligand binding. Also, unless otherwise indicated, all calculations of the efficacy and potency (e.g., % knockdown) of the siNAs were done relative to a non-targeting control siNA. If reported, P-values were computed using The Students t-test, including the Welch Correction for unequal variances.
(§3) In all of the calculations of the % knock-down of mRNA, the calculation was made relative to the normalized level of expression of the gene of interest in the samples treated with the non-targeting control (NTC) unless otherwise indicated. The gene of interest expression level was divided by the level of expression of GAPDH or 36B4 (depending on the species) in each sample. The three replicates for each condition in each experiment were averaged and the standard deviation of those samples was calculated. The following formula was then used to calculate the % of knock-down of the gene of interest:
(§4) The ENaCα siNAs were designed and synthesized as described previously. The siNAs were screened in three cell lines. Human A549 cells, mouse NIH 3T3 and Rat H-4-II-E cells. The data from the screen of ENaCa siNAs in all three species is shown in Tables 3a, 3b, 4a, 4b, 5a, and 5b and a summary of the data for certain siNA molecules is presented in Table 6. Each screen was performed at 24 hrs. The decision to use this time point was based upon the degree of knockdown of the mRNA seen at that time point.

The test system of data set [2] is mSCNN1A mRNA. In words: Screening of ENaCα siNAs in mouse NIH 3T3 cells (quantitative RT-PCR). To be noted: for Mean (mSCNN1A expression normalized to the level of m36B4) / Percent Reduction of the mSCNN1A mRNA relative to a non-targeting control siNA / Avg ENaCα Expression (mSCNN1A) / Avg 36B4 Expression: mouse NIH 3T3 cells, n = 3; for Mean (mSCNN1A expression normalized to the level of m36B4) / Percent Reduction of the mSCNN1A mRNA relative to a non-targeting control siNA / Avg 36B4 Expression: 24 hours post-transfection; for Avg ENaCα Expression (mSCNN1A): harvested 24 hours post-transfection; for Avg 36B4 Expression: housekeeping gene used for normalisation. The format is cell-based. Further details: Percent Reduction of the mSCNN1A mRNA relative to a non-targeting control siNA / Mouse % KD (efficacy of ENaCα mRNA knockdown): concentration or dose not given beside the values. The method, then:
siNA constructs (Table 1b) may be tested for efficacy in reducing ENaC RNA expression in, for example, A549 human lung carcinoma cells. A549 (human; ATCC cat# CCL-185) cells were cultured at 37° C. in the presence of 5% CO2 and grown in Ham's F12K medium with 2 mM L-glutamine adjusted to contain 1.5 g/L sodium bicarbonate and supplemented with fetal bovine serum at a final concentration of 10% and 100 U/mL penicillin. The A549 cells were plated approximately 24 hours before transfection in 96-well plates at 7,500 cells/well, 100 μl/well. After 24 hours complexes containing siNA and Lipofectamine 2000 (Invitrogen) were created as follows: a solution of Lipofectamine 2000 in OPTI-MEM was prepared containing Lipofectamine 2000 at a final concentration of 14 μg/ml. In parallel, solutions of the siNAs were prepared in OPTI-MEM at a final concentration of 150 nM. After both solutions were incubated at 20° C. for 20 minutes an equal volume of the siNA solutions and the Lipofectamine 2000 solution were added together for each of the siNAs. The resultant solution has the siNAs at a final concentration of 75 nM and Lipofectamine 2000 at a final concentration of 7 μg/ml. This solution was incubated at 20° C. for 20 minutes. After incubation 50 μl of the solution were added to each of the wells (in triplicate). The final concentration of siNA in each well was 25 nM and the final concentration of Lipofectamine 2000 in each well was 2.33 μg/ml. The plates were incubated for 48 hours with no change of media before harvesting. Dose response curves were determined in a similar manner with each concentration being done in triplicate and maintaining a constant amount of Lipofectamine 2000 in each transfection.
as §1, §2, §3, §4

In the case of “B GGcAGccAGuGGAGccuGu TTB / ACAGGcuccAcuGGcuGccUU (sense GGCAGCCAGUGGAGCCUGUTT; antisense ACAGGCUCCACUGGCUGCCUU; siRNA; sense: DNA at AGT, 2'-fluoro at CU, [invAb] at 5' end, 3' end, backbone not given here; antisense: sugars from the 5' end rrrmmffffmffmmffmffmm, backbone not given here) [Site 1753]”, in data set [1], the “Mean (rSCNN1A expression normalized to the level of rGAPDH)” value came out at 0.59, the “Percent Reduction of the r ENaCα mRNA relative to a non-targeting control siNA (NTCs)” value is reported as 35.4%, the “Avg ENaCα Expression (rSCNN1A)” value was found to be 24.59 and the “Avg GAPDH Expression (rGAPDH)” value is given as 41.36. Moreover, in data set [2], the “Mean (mSCNN1A expression normalized to the level of m36B4)” value was determined as 0.12, the “Percent Reduction of the mSCNN1A mRNA relative to a non-targeting control siNA” value was 9.6%, the “Avg ENaCα Expression (mSCNN1A)” value stood at 3.13 and the “Avg 36B4 Expression” value stood at 25.27.
For “B GGcuGuGccuAcAucuucu TTB / AGAAGAuGucGGcAcAGccUU (sense GGCUGUGCCUACAUCUUCUTT; antisense AGAAGAUGUCGGCACAGCCUU; siRNA; sense: DNA at AGT, 2'-fluoro at CU, [invAb] at 5' end, 3' end, backbone not given here; antisense: sugars from the 5' end rrrmmmfmffmmfmfmmffmm, backbone not given here) [Site 1387]”, in data set [1], the “Mean (rSCNN1A expression normalized to the level of rGAPDH)” value was 0.71, the “Percent Reduction of the r ENaCα mRNA relative to a non-targeting control siNA (NTCs)” value turned out to be 23.3%, the “Avg ENaCα Expression (rSCNN1A)” value turned out to be 24.12 and the “Avg GAPDH Expression (rGAPDH)” value is reported as 34.37. In data set [2], the “Mean (mSCNN1A expression normalized to the level of m36B4)” value was determined as 0.06, the “Percent Reduction of the mSCNN1A mRNA relative to a non-targeting control siNA” value is reported as 59.1%, the “Avg ENaCα Expression (mSCNN1A)” value turned out to be 1.37 and the “Avg 36B4 Expression” value was found to be 24.37.
Regarding “B GcAuGAAGAcGGccuucuG TTB / CAGAAGGccGuCuucAuGcUU (chain 1 GCAUGAAGACGGCCUUCUGTT; chain 2 CAGAAGGCCGUCUUCAUGCUU; siRNA; chain 1: DNA at AGT, 2'-fluoro at CU, [invAb] at 5' end, 3' end, backbone not given here; chain 2: sugars from the 5' end rrrmmmmffmfmfffmfmfmm, backbone not given here) [Site 341]”, in data set [1], the “Mean (rSCNN1A expression normalized to the level of rGAPDH)” value came out at 1.05, the “Percent Reduction of the r ENaCα mRNA relative to a non-targeting control siNA (NTCs)” value is recorded as 18.4%, the “Avg ENaCα Expression (rSCNN1A)” value is reported as 19.10 and the “Avg GAPDH Expression (rGAPDH)” value was 18.30. In data set [2], the “Mean (mSCNN1A expression normalized to the level of m36B4)” value is given as 0.23, the “Percent Reduction of the mSCNN1A mRNA relative to a non-targeting control siNA” value is 3.9%, the “Avg ENaCα Expression (mSCNN1A)” value was 3.17 and the “Avg 36B4 Expression” value amounted to 13.56.
As for “B GccAGuGGAGccuGuGGuu TTB / AACcAcAGGcuccAcuGGcUU (sense GCCAGUGGAGCCUGUGGUUTT; antisense AACCACAGGCUCCACUGGCUU; siRNA; sense: DNA at AGT, 2'-fluoro at CU, [invAb] at 5' end, 3' end, backbone not given here; antisense: sugars from the 5' end rrrfmfmmmffffmffmmfmm, backbone not given here) [Site 1757]”, in data set [1], the “Mean (rSCNN1A expression normalized to the level of rGAPDH)” value turned out to be 0.72, the “Percent Reduction of the r ENaCα mRNA relative to a non-targeting control siNA (NTCs)” value is reported as 21.5%, the “Avg ENaCα Expression (rSCNN1A)” value was found to be 29.36 and the “Avg GAPDH Expression (rGAPDH)” value is given as 40.49. In addition, in data set [2], the “Mean (mSCNN1A expression normalized to the level of m36B4)” value is given as 0.11, the “Percent Reduction of the mSCNN1A mRNA relative to a non-targeting control siNA” value is reported as 22.2%, the “Avg ENaCα Expression (mSCNN1A)” value was 2.58 and the “Avg 36B4 Expression” value is 24.24.
As for “B GccAuccGccuGGuGuGcu TTB / AGCAcAccAGGcGGAuGGcUU (sense GCCAUCCGCCUGGUGUGCUTT; antisense AGCACACCAGGCGGAUGGCUU; siRNA; sense: DNA at AGT, 2'-fluoro at CU, [invAb] at 5' end, 3' end, backbone not given here; antisense: sugars from the 5' end rrrmfmffmmmfmmrfmmfmm, backbone not given here) [Site 310]”, in data set [1], the “Mean (rSCNN1A expression normalized to the level of rGAPDH)” value turned out to be 0.92, the “Percent Reduction of the r ENaCα mRNA relative to a non-targeting control siNA (NTCs)” value worked out at 28.3%, the “Avg ENaCα Expression (rSCNN1A)” value is 18.39 and the “Avg GAPDH Expression (rGAPDH)” value is 20.12. In data set [2], the “Mean (mSCNN1A expression normalized to the level of m36B4)” value is recorded as 0.20, the “Percent Reduction of the mSCNN1A mRNA relative to a non-targeting control siNA” value turned out to be 16.6%, the “Avg ENaCα Expression (mSCNN1A)” value amounted to 3.19 and the “Avg 36B4 Expression” value came to 16.02.
Regarding “B GcuGuGccuAcAucuucuA TTB / UAGAAGAuGuAGGcAcAGcUU (sense GCUGUGCCUACAUCUUCUATT; antisense UAGAAGAUGUAGGCACAGCUU; siRNA; B caps on sense ends, letter-case modifications not given here, further chemistry not given here) [Site 1388]”, in data set [1], the “Mean (rSCNN1A expression normalized to the level of rGAPDH)” value came out at 0.32, the “Percent Reduction of the r ENaCα mRNA relative to a non-targeting control siNA (NTCs)” value amounted to 65.6%, the “Avg ENaCα Expression (rSCNN1A)” value was 11.65 and the “Avg GAPDH Expression (rGAPDH)” value is on record as 37.10. The negative-log IC50 (pIC50) in data set [1] (rat cell line, dose response, read-out: Rat IC50 (potency of ENaCα mRNA knockdown)) was 9.05. Besides, in data set [1] (rat cell line, summary), the “Rat % KD (efficacy of ENaCα mRNA knockdown)” value stood at 65%. Further, in data set [2], the “Mean (mSCNN1A expression normalized to the level of m36B4)” value is listed as 0.04, the “Percent Reduction of the mSCNN1A mRNA relative to a non-targeting control siNA” value was 73.4%, the “Avg ENaCα Expression (mSCNN1A)” value was 0.90 and the “Avg 36B4 Expression” value is listed as 24.18. In data set [2] (mouse cell line, dose response, read-out: Mouse IC50 (potency of ENaCα mRNA knockdown)), the pIC50 was 8.72. Also, in data set [2] (mouse cell line, summary), the “Mouse % KD (efficacy of ENaCα mRNA knockdown)” value is 73%.
Consider “B GuGGcuGuGccuAcAucuu TTB / AAGAuGuAGGcAcAGccAcUU (sense GUGGCUGUGCCUACAUCUUTT; antisense AAGAUGUAGGCACAGCCACUU; siRNA; sense: DNA at AGT, 2'-fluoro at CU, [invAb] at 5' end, 3' end, backbone not given here; antisense: sugars from the 5' end rrrmfmfmmmfmfmmffmfmm, backbone not given here) [Site 1385]”, for which, in data set [1], the “Mean (rSCNN1A expression normalized to the level of rGAPDH)” value is recorded as 0.58, the “Percent Reduction of the r ENaCα mRNA relative to a non-targeting control siNA (NTCs)” value worked out at 36.7%, the “Avg ENaCα Expression (rSCNN1A)” value came out at 19.09 and the “Avg GAPDH Expression (rGAPDH)” value is recorded as 30.04. For the same substance, in data set [2], the “Mean (mSCNN1A expression normalized to the level of m36B4)” value stood at 0.13, the “Percent Reduction of the mSCNN1A mRNA relative to a non-targeting control siNA” value was 4.4%, the “Avg ENaCα Expression (mSCNN1A)” value amounted to 2.95 and the “Avg 36B4 Expression” value is reported as 22.75.

As a reminder, the pIC50 is the IC50 on a negative log10 scale, so that one unit is a factor of ten.
